# Data from patent publication US6537965B1, “Amino-terminal modified parathyroid hormone (PTH) analogs” (The General Hospital Corporation, priority 1998, dated 2003).
# Entries after “also recorded” stand apart in the source; their conditions may differ.
# Key:
# [1] = target: T1, hPTH-1 receptors (Homo sapiens, UniProt Q03431); assay: radioligand binding to HKRK C53 cells; parameters: expressed in transfected cells; details: average level
# T1 sequence (Q03431 27-593): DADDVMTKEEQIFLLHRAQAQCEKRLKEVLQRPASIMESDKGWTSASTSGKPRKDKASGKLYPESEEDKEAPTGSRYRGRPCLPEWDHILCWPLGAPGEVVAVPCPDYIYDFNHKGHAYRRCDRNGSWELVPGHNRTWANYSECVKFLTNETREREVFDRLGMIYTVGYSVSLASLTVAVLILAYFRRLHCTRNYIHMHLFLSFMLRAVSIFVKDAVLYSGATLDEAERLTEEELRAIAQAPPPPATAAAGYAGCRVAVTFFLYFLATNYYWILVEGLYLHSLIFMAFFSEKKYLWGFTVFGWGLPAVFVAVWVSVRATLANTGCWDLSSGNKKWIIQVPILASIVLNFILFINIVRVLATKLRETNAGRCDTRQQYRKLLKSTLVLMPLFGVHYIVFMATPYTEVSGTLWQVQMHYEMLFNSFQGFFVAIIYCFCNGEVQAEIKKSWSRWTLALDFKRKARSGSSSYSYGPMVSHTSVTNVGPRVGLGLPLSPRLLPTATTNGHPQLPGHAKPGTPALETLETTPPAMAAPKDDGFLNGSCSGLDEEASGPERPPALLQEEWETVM
# Source text: (§1) The following cell lines were used in these studies. HKRK C53 subclones of LLC-PKI porcine renal epithelial cells which stably express human PTH-1 receptors (150,000 receptors/cell). SaOS-2 cells are transformed human osteosarcoma cells which express relatively few (10,000-20,000 per cell) human PTH-1 receptors. HPR2-7 cells are subclones of LLC-PK1 which express approximately 250,000 recombinant human PTH-2 receptors per cell. HKRK-B7 cells are subclones of LLC-PK which stably express approximately 1 million hPTH-1 receptors per cell. HPR2-22 cells are subclones of LLC-PK1 which express 1.5 million recombinant hPTH-2 receptors per cell. The HPR2-27 and HPR2-22 cell lines were created in the same fashion as the HKRK cells but employing instead type 2 PTH receptor cDNA using the transfection technique of (Bringhurst, F. R., et al., Endocrinology 132(5):2090-2098 (1993); Guo, J., et al., Endocrinology 136(9):3884-3891 (1995)).
# (§2) Radioligand competition binding assays were performed at 2-8° C. for 6 hr using ^125I-[Nle^8,21]rat PTH-(1-34) (100,000 cpm/well) in the presence or absence of non-radioactive hPTH-(1-34) analogs. Cell layers were washed three times before solubilization for determination of cell-associated radioactivity.
# [2] = target: T2, hPTH-2 receptors (Homo sapiens, UniProt P49190); assay: cAMP measurements in clonal LLC-PK1 cells (HPR2-7); type: cell-based; details: HPR2-7 cells; average level
# T2 construct: expressed in transfected cells
# T2 sequence (P49190 25-550): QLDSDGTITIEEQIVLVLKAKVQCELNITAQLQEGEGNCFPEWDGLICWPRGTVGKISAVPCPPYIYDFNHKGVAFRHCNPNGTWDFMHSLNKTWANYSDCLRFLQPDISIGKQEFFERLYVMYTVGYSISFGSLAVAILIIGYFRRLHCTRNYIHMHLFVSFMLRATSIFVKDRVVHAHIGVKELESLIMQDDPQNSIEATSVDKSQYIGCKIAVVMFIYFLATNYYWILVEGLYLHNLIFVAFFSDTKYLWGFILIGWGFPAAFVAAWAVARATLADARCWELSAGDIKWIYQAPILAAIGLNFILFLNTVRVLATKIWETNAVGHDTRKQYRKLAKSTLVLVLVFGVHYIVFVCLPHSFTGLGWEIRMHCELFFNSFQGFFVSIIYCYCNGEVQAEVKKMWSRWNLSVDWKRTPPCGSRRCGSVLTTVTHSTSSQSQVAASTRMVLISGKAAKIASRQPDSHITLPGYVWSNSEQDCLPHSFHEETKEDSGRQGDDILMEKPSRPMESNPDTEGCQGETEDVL
# Source text: as §1, with “HKRK-B7 cells are subclones of LLC-PK which stably express approximately 1 million hPTH-1 receptors per cell. HPR2-22 cells are subclones of LLC-PK1 which express 1.5 million recombinant hPTH-2 receptors per cell.” left out
# (§3) Intracellular cAMP accumulation, PLC activation and PTHR binding affinity were measured as previously reported (Bringhurst, F. R., et al., Endocrinology 132(5):2090-2098 (1993); Guo, J., et al., Endocrinology 136(9):3884-3891 (1995)). Intracellular cAMP accumulation was measured in extracts of cells that were exposed to human PTH peptides in the presence of isobutylmethyxanthine (IBMX, 1 mM) at 37° C. for 15 min. After terminating the reactions by aspiration and freezing in liquid nitrogen, cell monolayers were extracted with 50 mM HCl and cAMP was measured using a radioimmunoassay kit (Dupont-New England Nuclear, Boston, Mass.).
# [3] = target: T2, hPTH-2 receptors; assay: cAMP accumulation in HPR2-22 cells; type: cell-based; details: average level
# Source text: as §1, with “The HPR2-27 and HPR2-22 cell lines were created in the same fashion as the HKRK cells but employing instead type 2 PTH receptor cDNA using the transfection technique of (Bringhurst, F. R., et al., Endocrinology 132(5):2090-2098 (1993); Guo, J., et al., Endocrinology 136(9):3884-3891 (1995)).” left out
# as §3
# [4] = target: T1, hPTH-1 receptors; assay: cAMP accumulation in HKRK B28 cells; type: cell-based; parameters: expressed in transfected cells; details: average level
# Description: as §3
# [5] = target: T2, hPTH-2 receptors; assay: radioligand competition binding to HPR2-7 cells; details: average level
# Description: as §2
# [6] = target: T1, hPTH-1 receptors; assay: phospholipase C (PLC) activity in HKRK-B7 cells; type: cell-based; parameters: expressed in transfected cells; details: about 1 million hPTH-1 receptors per cell, 1000 nM (FIG. 4)
# Source text: as §1
# (§4) PLC was activated by PTH agonists in the presence of 30 mM LiCl at 37° C. for 30 min after 16 hr of labeling with [^3H]myo-inositol (3uCi/ml) in serum-free medium containing 0.1% bovine serum albumin. The reactions were stopped by rapid aspiration and addition of cold 5% TCA. Water-soluble radiolabeled inositol trisphosphate (IP3) was isolated after ether extraction by ion-exchange chromatography (Guo, J., et al., Endocrinology 136(9):3884-3891 (1995)). In experiments involving HEK 293 cells, cells previously transfected with human PTHR cDNA (in the pcDNA1 expression vector HKRK) using Lipofectamine (Gibco BRL) were labeled with [^3H]myo-inositol and assayed as described above, except that total water-soluble [^3H]inositol polyphosphates were collected as a single fraction from the ion-exchange columns.
# [7] = target: T1, hPTH-1 receptors; assay: radioligand competition binding to HKRK B28 cells; parameters: expressed in transfected cells
# Description: as §2
# [8] = target: T1, hPTH-1 receptors; assay: IP3 formation in HKRK C53 cells; type: cell-based; parameters: expressed in transfected cells; details: average level
# Source text: as §1
# PLC was activated by PTH agonists in the presence of 30 mM LiCl at 37° C. for 30 min after 16 hr of labeling with [^3H]myo-inositol (3uCi/ml) in serum-free medium containing 0.1% bovine serum albumin. The reactions were stopped by rapid aspiration and addition of cold 5% TCA. Water-soluble radiolabeled inositol trisphosphate (IP3) was isolated after ether extraction by ion-exchange chromatography (Guo, J., et al., Endocrinology 136(9):3884-3891 (1995)). […]
# [9] = target: T1, hPTH-1 receptors; assay: cAMP accumulation (adenylyl cyclase activation) in HKRK C53 cells; type: cell-based; parameters: expressed in transfected cells; details: HKRK C53 cells
# Source text: as §1, with “HKRK-B7 cells are subclones of LLC-PK which stably express approximately 1 million hPTH-1 receptors per cell. HPR2-22 cells are subclones of LLC-PK1 which express 1.5 million recombinant hPTH-2 receptors per cell.” left out
# as §3
# [10] = target: T1, hPTH-1 receptors; assay: PLC activation in HEK-293 cells transiently transfected with human PTHR cDNA; type: cell-based; parameters: expressed in transfected cells; host or cells: HEK-293 human embryonic kidney cells, transient transfection with Lipofectamine; details: HEK-293 cells transiently transfected with human PTHR cDNA (data not shown)
# Description: as §4
# [11] = target: T2, hPTH-2 receptors; assay: phospholipase C activation in HPR2-22 cells; type: cell-based; details: 1.5 million hPTH-2 receptors per cell, 1,000 nM (FIG. 5)
# Source text: as §1, §4
# [12] = target: T1, hPTH-1 receptors; assay: cAMP measurements in SaOS-2 cells; type: cell-based; parameters: expressed in transfected cells; details: SaOS-2 cells, 10,000-20,000 human PTH-1 receptors per cell; up to 1 uM (FIG. 2)
# Source text: as §1, §3
# [13] = target: T1, hPTH-1 receptors; assay: AC activation in HKRK B7 cells; type: cell-based; parameters: expressed in transfected cells; details: HKRK B7 cells (large number of human PTH-1 receptors)
# Source text: as §1, §3
Compound,binding in the presence of maximal concentrations of peptide [1] [cpm/well],cAMP accumulation in the presence of maximal concentrations of peptide [2] [pmoles/well/15 min],cAMP accumulation in the presence of maximal concentrations of peptide [3] [pmoles/well/15 min],cAMP accumulation in the presence of maximal concentrations of peptide [4] [pmoles/well/15 min],binding in the presence of maximal concentrations of peptide [5] [cpm/well],activation of PLC [6],"binding in the presence of maximal concentrations of peptide ([7]; HKRK B28 cells, average level)",IP3 formation in the presence of maximal concentrations of peptide [8] [cpm/well],cAMP accumulation in the presence of maximal concentrations of peptide ([9]; average level) [pmoles/well/15 min],activation of PLC [10],activation of phospholipase C [11],activation of PLC ([6]; listed as Human PTH(2-34)),"competitive displacement of 125I-[Nle8,21]rPTH(1-34) radioligand binding ([7]; HKRK B28 cells, 280,000 human PTH-1 receptors/cell (FIG. 6))",cyclase (cAMP) activity compared with control hPTH(1-34) [12],activation of AC compared with hPTH-(1-34) [13],"cyclic AMP accumulation, efficacy compared with native hPTH(1-34)NH2 ([9]; about 150,000 hPTH-1 receptors per cell, 10^-9M and 10^-7M peptide (FIG. 1))"
CC[C@H](C)[C@H](NC(=O)[C@H](CCC(=O)O)NC(=O)[C@H](CO)NC(=O)[C@@H](NC(=O)[C@@H](N)CO)C(C)C)C(=O)N[C@@H](CCC(N)=O)C(=O)N[C@@H](CC(C)C)C(=O)N[C@@H](CCSC)C(=O)N[C@@H](Cc1c[nH]cn1)C(=O)N[C@@H](CC(N)=O)C(=O)N[C@@H](CC(C)C)C(=O)NCC(=O)N[C@@H](CCCCN)C(=O)N[C@@H](Cc1c[nH]cn1)C(=O)N[C@@H](CC(C)C)C(=O)N[C@@H](CC(N)=O)C(=O)N[C@@H](CO)C(=O)N[C@@H](CCSC)C(=O)N[C@@H](CCC(=O)O)C(=O)N[C@@H](CCCNC(=N)N)C(=O)N[C@H](C(=O)N[C@@H](CCC(=O)O)C(=O)N[C@@H](Cc1c[nH]c2ccccc12)C(=O)N[C@@H](CC(C)C)C(=O)N[C@@H](CCCNC(=N)N)C(=O)N[C@@H](CCCCN)C(=O)N[C@@H](CCCCN)C(=O)N[C@@H](CC(C)C)C(=O)N[C@@H](CCC(N)=O)C(=O)N[C@@H](CC(=O)O)C(=O)N[C@H](C(=O)N[C@@H](Cc1c[nH]cn1)C(=O)N[C@@H](CC(N)=O)C(=O)N[C@@H](Cc1ccccc1)C(N)=O)C(C)C)C(C)C [hPTH(1-34)NH2],956±135,133±14,286±8,337±55,4541±386,fill agonists,"16,137±919 cpm/well",1908±251,207±37,–,–,–,–,–,–,–
"hPTH(2-34): N-truncated human PTH peptide, residues 2-34 (VSEIQLMHNLGKHLNSMERVEWLRKKLQDVHNF)",–,–,–,–,–,did not elicit PLC activity,–,–,–,inability,only a partial agonist,inactive,binds as well,very weak agonists,comparable in magnitude and sensitivity to that of hPTH-(1-34); also recorded: approximately equipotent,similarly reduced activity
